Laboratory results as given in US8288424B2, “Substituted tetrahydroimidazopyridine compounds and the use thereof in the treatment of pain and other conditions” (Gruenenthal GmbH, priority 2008, dated 2012).

The compounds below were run against T1, KCNQ2/3 channels (Homo sapiens, UniProt O43525+O43526) (assay: Fluorescence assay using a voltage-sensitive dye). Settings: 10 μmol test substance; CHO-K1 cells expressing KCNQ2/3 channels; agonistic activity; read-out: % Stimulation [10 μmol] Average.
T1 construct: expressed in transfected cells; host or cells: CHO-K1
Type: cell-based
Method: Fluorescence Assay Using a Voltage-Sensitive Dye
Human CHO-K1 cells expressing KCNQ2/3 channels are cultivated adherently at 37° C., 5% CO2 and 95% humidity in cell culture bottles (e.g. 80 cm^2 TC flasks, Nunc) with MEM Alpha Medium (1×, liquid, Invitrogen, #22571), 10% foetal calf serum (FCS) (Invitrogen, #10270-106, heat-inactivated) and the necessary selection antibiotics. Before being spread out for the measurements, the cells are washed with a 1×DPBS buffer without Ca^2+/Mg^2+ (e.g. Invitrogen, #14190-094) and detached from the bottom of the culture vessel by means of Accutase (PAA Laboratories, #L11-007) (incubation with Accutase for 15 min at 37° C.). The cell count then present is determined using a CASY™ cell counter (TCC model, Schärfe System) in order subsequently to apply 20,000 cells/well/100 μl of the described nutrient medium to 96-well measuring plates of the Corning™ CellBIND™ type (flat clear-bottom black polystyrene microplates, #3340). Incubation is then carried out for one hour at room temperature, without gassing or adjusting the humidity, followed by incubation for 24 hours at 37° C., 5% CO2 and 95% humidity.
The voltage-sensitive fluorescent dye from the Membrane Potential Assay Kit (Red bulk format part R8123 for FLIPR, Molecular Devices™) is prepared by dissolving the contents of a vessel of Membrane Potential Assay Kit Red Component A in 200 ml of extracellular buffer (ES buffer, 120 mM NaCl, 1 mM KCl, 10 mM HEPES, 2 mM CaCl2, 2 mM MgCl2, 10 mM glucose; pH 7.4). After removal of the nutrient medium, the cells are washed with 200 μl of ES buffer, then covered with a layer of 100 μl of the dye solution prepared above and incubated for 45 min at room temperature with exclusion of light.
The fluorescence measurements are carried out with a BMG Labtech FLUOstar™ or BMG Labtech POLARstar™ instrument (525 nm excitation, 560 nm emission, bottom-read mode). After incubation of the dye, 50 μl of the substances to be tested in the desired concentrations, or 50 μl of ES buffer for control purposes, are introduced into separate cavities of the measuring plate and incubated for 30 min at room temperature whilst being shielded from light. The fluorescence intensity of the dye is then measured for 5 min and the fluorescence value F1 of each well is thus determined at a given, constant time. 15 μl of a […] KCl solution ([…]) are then added to each well. The change in fluorescence is subsequently measured until all relevant measured values have been obtained (mainly 5-30 min). At a given time after KCl application, a fluorescence value F2 is determined, in this case at the time of the fluorescence peak.
For calculation, the fluorescence intensity F2 is compared with the fluorescence intensity F1, and the agonistic activity of the target compound on the potassium channel is determined therefrom. F2 and F1 are calculated as follows:
[formula] In order to determine whether a substance has an agonistic activity,
[formula] for example, can be compared with
[formula] of control cells.
[formula] is determined by adding to the reaction batch only the buffer solution instead of the substance to be tested, determining the value F1K of the fluorescence intensity, adding the potassium ions as described above and measuring a value F2K of the fluorescence intensity. Then F2K and F1K are calculated as follows:
[formula] A substance has an agonistic activity on the potassium channel when
[formula] is greater than
[formula] Independently of the comparison of
[formula] it is also possible to conclude that a target compound has an agonistic activity if an increase in
[formula] is to be observed as the dosage of the target compound increases. Calculations of EC50 and IC50 values are carried out with the aid of Prism 4 software (GraphPad Software™).

Row | Compound | activation at 10 µM [%]
1 | O=C(c1cn2c(n1)CCC(c1ccccc1)C2)N1CCC(Cc2ccccc2)CC1 (centres unmarked) [Compound 1, (4-Benzylpiperidin-1-yl)(6-phenyl-5,6,7,8-tetrahydroimidazo[1,2-a]pyridin-2-yl)methanone] | 16.2
2 | O=C(c1cn2c(n1)CCC(c1ccccc1)C2)N(CCc1ccccc1)Cc1ccccc1 (centres unmarked) [Compound 2, N-Benzyl-N-phenethyl-6-phenyl-5,6,7,8-tetrahydroimidazo[1,2-a]pyridine-2-carboxamide] | 20
3 | CC1(C)CC2CC(C)(CN2C(=O)c2cn3c(n2)CCC(c2ccccc2)C3)C1 (centres unmarked) [Compound 3, (6-Phenyl-5,6,7,8-tetrahydroimidazo[1,2-a]pyridin-2-yl)(1,3,3-trimethyl-6-azabicyclo[3.2.1]octan-6-yl)methanone] | 16.7
4 | CC1(C)CC2CC(C)(CN2C(=O)c2cn3c(n2)CCC(c2cccc(F)c2)C3)C1 (centres unmarked) [Compound 4, (6-(3-Fluorophenyl)-5,6,7,8-tetrahydroimidazo[1,2-a]pyridin-2-yl)(1,3,3-trimethyl-6-azabicyclo[3.2.1]octan-6-yl)methanone] | 20.7
5 | COc1c(C)cc(C2CCc3nc(C(=O)NCc4ccccc4)cn3C2)cc1C (centres unmarked) [Compound 5, N-Benzyl-6-(4-methoxy-3,5-dimethylphenyl)-5,6,7,8-tetrahydroimidazo[1,2-a]pyridine-2-carboxamide] | 15.5
6 | COc1ccc(F)cc1C1CCc2nc(C(=O)N3CCN(c4cccc(C(F)(F)F)c4)CC3)cn2C1 (centres unmarked) [Compound 7, (6-(5-Fluoro-2-methoxyphenyl)-5,6,7,8-tetrahydroimidazo[1,2-a]pyridin-2-yl)(4-(3-(trifluoromethyl)phenyl)piperazin-1-yl)methanone] | 30
7 | COc1ccc(F)cc1C1CCc2nc(C(=O)N3CCC(Cc4ccccc4)CC3)cn2C1 (centres unmarked) [Compound 8, (4-Benzylpiperidin-1-yl)(6-(5-fluoro-2-methoxyphenyl)-5,6,7,8-tetrahydroimidazo[1,2-a]pyridin-2-yl)methanone] | 29.1
8 | COc1ccccc1N1CCN(C(=O)c2cn3c(n2)CCC(c2cc(C)c(OC)c(C)c2)C3)CC1 (centres unmarked) [Compound 10, (6-(4-Methoxy-3,5-dimethylphenyl)-5,6,7,8-tetrahydroimidazo[1,2-a]pyridin-2-yl)(4-(2-methoxyphenyl)piperazin-1-yl)methanone] | 15.7
9 | CCc1ccc(C2CCc3nc(C(=O)N4CCC(Cc5ccccc5)CC4)cn3C2)cc1 (centres unmarked) [Compound 11, (4-Benzylpiperidin-1-yl)(6-(4-ethylphenyl)-5,6,7,8-tetrahydroimidazo[1,2-a]pyridin-2-yl)methanone] | 38.5
10 | COc1ccc(OC)c(C2CCc3nc(C(=O)N4CC5(C)CC4CC(C)(C)C5)cn3C2)c1 (centres unmarked) [Compound 12, (6-(2,5-Dimethoxyphenyl)-5,6,7,8-tetrahydroimidazo[1,2-a]pyridin-2-yl)(1,3,3-trimethyl-6-azabicyclo[3.2.1]octan-6-yl)methanone] | 51.8
11 | Cc1cc(C2CCc3nc(C(=O)N4CCN(c5ccccc5F)CC4)cn3C2)ccc1F (centres unmarked) [Compound 13, (6-(4-Fluoro-3-methylphenyl)-5,6,7,8-tetrahydroimidazo[1,2-a]pyridin-2-yl)(4-(2-fluorophenyl)piperazin-1-yl)methanone] | 18
12 | Cc1cc(C2CCc3nc(C(=O)NC(C)c4ccccc4)cn3C2)ccc1F (centres unmarked) [Compound 14, 6-(4-Fluoro-3-methylphenyl)-N-(1-phenylethyl)-5,6,7,8-tetrahydroimidazo[1,2-a]pyridine-2-carboxamide] | 24.7
13 | CCCCCNC(=O)c1cn2c(n1)CCC(c1cc(C)c(OC)c(C)c1)C2 (centres unmarked) [Compound 15, 6-(4-Methoxy-3,5-dimethylphenyl)-N-pentyl-5,6,7,8-tetrahydroimidazo[1,2-a]pyridine-2-carboxamide] | 16.8
14 | COc1c(C)cc(C2CCc3nc(C(=O)NCc4cccc(C(F)(F)F)c4)cn3C2)cc1C (centres unmarked) [Compound 17, 6-(4-Methoxy-3,5-dimethylphenyl)-N-(3-(trifluoromethyl)benzyl)-5,6,7,8-tetrahydroimidazo[1,2-a]pyridine-2-carboxamide] | 18.5
15 | CCC(C)NC(=O)c1cn2c(n1)CCC(c1ccc(Oc3ccccc3)cc1)C2 (centres unmarked) [Compound 18, N-sec-Butyl-6-(4-phenoxyphenyl)-5,6,7,8-tetrahydroimidazo[1,2-a]pyridine-2-carboxamide] | 18.6
16 | CCOC(=O)C1CCCN(C(=O)c2cn3c(n2)CCC(c2ccc(Oc4ccccc4)cc2)C3)C1 (centres unmarked) [Compound 22, Ethyl 1-(6-(4-phenoxyphenyl)-5,6,7,8-tetrahydroimidazo[1,2-a]pyridine-2-carbonyl)piperidine-3-carboxylate] | 18
17 | O=C(NC1CC1)c1cn2c(n1)CCC(c1ccc(Oc3ccccc3)cc1)C2 (centres unmarked) [Compound 26, N-Cyclopropyl-6-(4-phenoxyphenyl)-5,6,7,8-tetrahydroimidazo[1,2-a]pyridine-2-carboxamide] | 17.4

Same assay, conditions: CHO-K1 cells expressing KCNQ2/3 channels; agonistic activity

Row | Compound | EC50 [µM]
18 | COc1c(C)cc(C2CCc3nc(C(=O)N4CCN(c5ccccc5F)CC4)cn3C2)cc1C (centres unmarked) [Compound 6, (4-(2-Fluorophenyl)piperazin-1-yl)(6-(4-methoxy-3,5-dimethylphenyl)-5,6,7,8-tetrahydroimidazo[1,2-a]pyridin-2-yl)methanone] | 7.4
19 | COc1ccc(F)cc1C1CCc2nc(C(=O)N3CC4(C)CC3CC(C)(C)C4)cn2C1 (centres unmarked) [Compound 9, (6-(5-Fluoro-2-methoxyphenyl)-5,6,7,8-tetrahydroimidazo[1,2-a]pyridin-2-yl)(1,3,3-trimethyl-6-azabicyclo[3.2.1]octan-6-yl)methanone] | 11.9
20 | CCCCCCNC(=O)c1cn2c(n1)CCC(c1cc(C)c(OC)c(C)c1)C2 (centres unmarked) [Compound 16, N-Hexyl-6-(4-methoxy-3,5-dimethylphenyl)-5,6,7,8-tetrahydroimidazo[1,2-a]pyridine-2-carboxamide] | 3.95
21 | CCCCNC(=O)c1cn2c(n1)CCC(c1ccc(Oc3ccccc3)cc1)C2 (centres unmarked) [Compound 19, N-Butyl-6-(4-phenoxyphenyl)-5,6,7,8-tetrahydroimidazo[1,2-a]pyridine-2-carboxamide] | 6.21
22 | CCOC(=O)C1CCN(C(=O)c2cn3c(n2)CCC(c2ccc(Oc4ccccc4)cc2)C3)CC1 (centres unmarked) [Compound 20, Ethyl 1-(6-(4-phenoxyphenyl)-5,6,7,8-tetrahydroimidazo[1,2-a]pyridine-2-carbonyl)piperidine-4-carboxylate] | 11.6
23 | CC1CCN(C(=O)c2cn3c(n2)CCC(c2ccc(Oc4ccccc4)cc2)C3)CC1 (centres unmarked) [Compound 21, (4-Methylpiperidin-1-yl)(6-(4-phenoxyphenyl)-5,6,7,8-tetrahydroimidazo[1,2-a]pyridin-2-yl)methanone] | 8.4
24 | CC(=O)N1CCN(C(=O)c2cn3c(n2)CCC(c2ccc(Oc4ccccc4)cc2)C3)CC1 (centres unmarked) [Compound 23, 1-(4-(6-(4-Phenoxyphenyl)-5,6,7,8-tetrahydroimidazo[1,2-a]pyridine-2-carbonyl)piperazin-1-yl)ethanone] | 5.81
25 | O=C(NCc1cccnc1)c1cn2c(n1)CCC(c1ccc(Oc3ccccc3)cc1)C2 (centres unmarked) [Compound 24, 6-(4-Phenoxyphenyl)-N-(pyridin-3-ylmethyl)-5,6,7,8-tetrahydroimidazo[1,2-a]pyridine-2-carboxamide] | 6.14
26 | O=C(c1cn2c(n1)CCC(c1ccc(Oc3ccccc3)cc1)C2)N1CCCC1 (centres unmarked) [Compound 25, (6-(4-Phenoxyphenyl)-5,6,7,8-tetrahydroimidazo[1,2-a]pyridin-2-yl)(pyrrolidin-1-yl)methanone] | 2.33
